Results on 6 molecules are retold here after article PMC10756536, “Functional expression and ligand identification of homo- and heteromeric Drosophila melanogaster CO2 receptors in the Xenopus laevis oocyte system” (PLOS ONE, 2023).

Assay type in all cases: cell-based
In assay [1] the target is T1, Gr21a/Gr63a CO2 receptor (Gr63a) (Drosophila melanogaster, UniProt Q9VPT1+Q9VZL7).
T1 construct: with Gr21a
T1 sequence (Q9VZL7 1-512): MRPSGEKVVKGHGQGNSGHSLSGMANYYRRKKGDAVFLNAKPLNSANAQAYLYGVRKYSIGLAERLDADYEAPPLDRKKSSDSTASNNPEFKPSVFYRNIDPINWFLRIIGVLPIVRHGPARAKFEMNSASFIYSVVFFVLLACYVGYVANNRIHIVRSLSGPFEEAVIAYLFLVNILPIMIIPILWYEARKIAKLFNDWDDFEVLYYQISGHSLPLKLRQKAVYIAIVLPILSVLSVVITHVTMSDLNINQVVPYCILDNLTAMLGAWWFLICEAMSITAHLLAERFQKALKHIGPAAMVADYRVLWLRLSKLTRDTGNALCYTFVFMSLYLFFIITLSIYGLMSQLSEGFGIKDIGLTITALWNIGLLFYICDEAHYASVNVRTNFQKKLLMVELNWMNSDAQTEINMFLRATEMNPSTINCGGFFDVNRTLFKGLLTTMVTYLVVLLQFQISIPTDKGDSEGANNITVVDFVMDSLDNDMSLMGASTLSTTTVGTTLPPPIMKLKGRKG
T1 sequence (Q9VPT1 1-447): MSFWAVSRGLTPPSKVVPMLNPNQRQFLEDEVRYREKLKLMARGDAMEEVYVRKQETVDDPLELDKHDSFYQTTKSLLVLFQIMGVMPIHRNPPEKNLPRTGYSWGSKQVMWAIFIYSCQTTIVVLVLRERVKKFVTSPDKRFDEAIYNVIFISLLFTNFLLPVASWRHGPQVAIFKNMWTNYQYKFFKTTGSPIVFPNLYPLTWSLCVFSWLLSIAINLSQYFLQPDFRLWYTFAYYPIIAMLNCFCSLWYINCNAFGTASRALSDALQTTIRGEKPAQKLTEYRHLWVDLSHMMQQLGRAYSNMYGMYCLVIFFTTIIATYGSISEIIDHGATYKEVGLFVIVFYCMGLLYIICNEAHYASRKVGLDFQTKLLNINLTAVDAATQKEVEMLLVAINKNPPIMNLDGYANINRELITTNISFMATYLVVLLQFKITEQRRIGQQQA
The assay is described as follows: two-electrode voltage clamp, Xenopus oocytes, block of NaHCO3 current at […].

For assay [2], the target named is T1, Gr21a/Gr63a CO2 receptor (Gr63a). As to the kind of experiment: two-electrode voltage clamp, Xenopus oocytes, block of […] NaHCO3 current.
Assay [3] has the same target. As to the kind of experiment: two-electrode voltage clamp, Xenopus oocytes, agonist current at […]. The conditions noted are these: read-out: % of 200 mM NHC response at 10 mM.

For `CCCCCCO` [1-hexanol], the “two-electrode voltage clamp, Xenopus oocytes, block of NaHCO3 current at 10 mM” value in assay [1] was “Gr21/Gr63 were significantly inhibited by 1-octanol, isobutyraldehyde, 1-hexanol”.
Still for that read-out and setting: in the case of `CCCCCCCCO` [1-octanol] it was “Gr21/Gr63 were significantly inhibited by 1-octanol, isobutyraldehyde, 1-hexanol”.
`CC(C)=CCCC(C)CCO` (stereo not drawn) [citronellol] displayed an IC50 in assay [2] of 5.1 ± 0.25 mM.
As to `CC(C)C=O` [isobutyraldehyde], the “two-electrode voltage clamp, Xenopus oocytes, block of NaHCO3 current at 10 mM” value in assay [1] is given as “Gr21/Gr63 were significantly inhibited by 1-octanol, isobutyraldehyde, 1-hexanol”.
For `COC(=O)C(C)=O` [methyl pyruvate], the activation at 10000 µM in assay [3] is 29 ± 8%.
On the same count and under the same terms, in the case of `CCCCCCN` [n-hexylamine] it was 64 ± 17%.
